Laboratory results reported in paper PMC6178183, “Development of a HPLC-MS/MS Method to Determine 11 Bioactive Compounds in Tongmai Yangxin Pill and Application to a Pharmacokinetic Study in Rats” (Evidence-based Complementary and Alternative Medicine : eCAM, 2018).
Several values for one entry are separate records, joined by “and”; a condition that tells them apart may be missing. Equal values may be shown once.

Tests used:
[1] = Pharmacokinetic study in rats after oral administration of TMYX extract (HPLC-MS/MS of plasma); type: in vivo, Sprague–Dawley rats; conditions: rat plasma; for AUC(0-inf) / half-life / AUC / k el: male, Sprague-Dawley; for AUC(0-inf) / half-life / AUC / k el / C max1 / T max1 / C max2 / T max2: oral TMYX extract 8.3 g/kg single dose; for AUC(0-inf) / half-life / AUC / k el / C max1 / C max2 / T max2: n=6; for AUC: read-out: AUC (0-tn); for k el: read-out: K e (converted); for T max1: n=6, mean ± SD; for peaks in the mean plasma concentration-time profile: oral TMYX extract 8.3 g/kg; for C max2 / T max2: second peak
Method: The HPLC-MS/MS system consists of an Agilent 1200 high-performance liquid chromatography coupled with an Aglient 6430 series triple quadrupole mass spectrometer with an electrospray ionization (ESI) source. The chromatographic separation was achieved on a CORTECS C18 column (4.6 mm × 150 mm, 2.7 μm), and the column temperature was kept at 30°C. Mobile phases which consisted of 0.1% formic acid in water (A) and acetonitrile (B) were used in the following gradient elution method: 0-10 min, 10%-85% B; 10-13 min, 85%-95% B; 13-19 min, 95%-95% B. The flow rate was set at 0.3 mL/min, and the injection volume was 10 μL. All data were analyzed by Mass Hunter workstation software (Agilent Technologies, USA).
The mass spectrometer was carried out in both positive and negative ionization multiple-reaction monitoring (MRM) mode. The source parameters were as follows: the capillary voltage set at 300 V for positive ionization mode and -300 V for negative ionization mode, the drying gas temperature was 320°C, the flow was 11 L/min, and nebulizing gas pressure was 30 psi.
The plasma (100 μL) was spiked with 20 μL of methanol, 20 μL of the IS (icariin, 1 μg/mL), and 20 μL of formic acid and then vortex-mixed. The mixture was extracted with 800 μL of ethyl acetate by vortex mixing for 5 min at room temperature. After centrifugation at 14,000 rpm for 10 min, the supernatant was collected to a clean tube and evaporated to dryness under a nitrogen stream. The residue was reconstituted in 50 μL of 50% methanol, vortexed for 5 min, and centrifuged at 14,000 rpm for 10 min. Finally, 10 μL supernatant was injected into the LC-MS/MS system for analysis.
Male Sprague–Dawley rats (230-250 g) were obtained from Beijing HFK Experimental Animal Technology Co., Ltd. The rats were maintained under the control environmental conditions and they fasted for 12 h with free access to water before the experiments. TMYX extracts were dissolved in CMC-Na and administrated orally to rats at 8.3 g/kg. The blood samples (200 μL) were collected from the rat fossa orbitalis vein at 0, 0.03, 0.083, 0.17, 0.25, 0.5, 1, 2, 4, 6, 8, 10, 12, 24, 36, and 48 h after oral administration to heparinized tubes. And then the blood samples were centrifuged at 7,000 rpm for 10 min to get the plasma sample immediately. Finally, the plasma obtained was stored at −70°C until analysis. Pharmacokinetic parameters were calculated by the computer program “Drug and Statistics 2.0” (DAS 2.0) (Medical College of Wannan, China).

[2] = Stability of analytes in rat plasma QC samples under storage conditions; type: in vitro ADME; conditions: n=6, gallic acid, ononin, schisandrin, stilbene glycoside, liquiritigenin, rhein, verbascoside; for Measured Concentration, auto-sampler for 12 h: prepared rat plasma samples; for Measured Concentration, -70°C for 14 days / Measured Concentration, room temperature for 6 h / Measured Concentration, three freeze-thaw cycles: rat plasma
Method: Quality control (QC) samples at three concentrations (low, medium, and high concentration) were made up of appropriate mixed standard solutions with blank blood sample as calibration solutions to meet the required concentrations. All the solutions were kept at 4°C.
The stability of analytes in plasma samples was determined by analyzing QC samples of three concentration levels at different conditions: stored at autosampler for 12 h, at room temperature for 6 h, under three freeze-thaw cycles and stored at -70°C for 14 days. All stability studies were measured in six replicates.

[3] = design: method as in PMID 23608243; conditions: rat dosed processed Radix polygoni multiflori; cited from earlier work
[4] = system: human umbilical vein endothelial cells; design: method as in doi:10.1039/C6RA19212B; conditions: human umbilical vein endothelial cells in zebrafish; cited from earlier work
[5] = design: method as in PMID 26771134; conditions: rat plasma, oral Radix glycyrrhizae or combination of Radix glycyrrhizae and Ramulus cinnamomi; cited from earlier work
[6] = design: method as in PMID 25943824; conditions: active ingredients of TMYX with high R values; cited from earlier work
[7] = high QC: spiked 2000 ng/mL glycyrrhizic acid, 1000 liquiritin, 200 emodin, 100 isoliquiritigenin
[8] = low QC: spiked 20 ng/mL glycyrrhizic acid, 10 liquiritin, 2 emodin, 1 isoliquiritigenin
[9] = medium QC: spiked 200 ng/mL glycyrrhizic acid, 100 liquiritin, 20 emodin, 10 isoliquiritigenin

| SMILES | AUC(0-inf) [1] [µg·h/mL] | half-life [1] [h] | AUC [1] [µg·h/mL] | k el [1] [s⁻¹] | C max1 [1] [µg/mL] | T max1 [1] | Measured Concentration, auto-sampler for 12 h [2, 7] [ng/mL] | Measured Concentration, auto-sampler for 12 h [2, 8] [ng/mL] | Measured Concentration, auto-sampler for 12 h [2, 9] [ng/mL] | Measured Concentration, -70°C for 14 days [2, 7] [ng/mL] | Measured Concentration, room temperature for 6 h [2, 7] [ng/mL] | Measured Concentration, three freeze-thaw cycles [2, 7] [ng/mL] | Measured Concentration, -70°C for 14 days [2, 8] [ng/mL] | Measured Concentration, room temperature for 6 h [2, 8] [ng/mL] | Measured Concentration, three freeze-thaw cycles [2, 8] [ng/mL] | Measured Concentration, -70°C for 14 days [2, 9] [ng/mL] | Measured Concentration, room temperature for 6 h [2, 9] [ng/mL] | Measured Concentration, three freeze-thaw cycles [2, 9] [ng/mL] | proliferation and angiogenesis [4] | antiinflammatory effects [6] | other results |
| --- | --- | --- | --- | --- | --- | --- | --- | --- | --- | --- | --- | --- | --- | --- | --- | --- | --- | --- | --- | --- | --- |
| Cc1cc(O)c2c(c1)C(=O)c1cc(O)cc(O)c1C2=O [emodin] | 0.561 ± 0.192 | 4.21 ± 2.63 | 0.476 ± 0.121 | 0.000108 | 0.088 ± 0.0375 | 0.32 ± 0.14 h | 200.50 ± 11.66 | 1.93 ± 0.02 | 19.88 ± 1.81 | 185.45 ± 0.98 | 207.49 ± 1.27 | 197.74 ± 5.65 | 1.86 ± 0.03 | 1.95 ± 0.05 | 2.00 ± 0.02 | 18.79 ± 0.18 | 21.14 ± 0.99 | 19.21 ± 0.33 | – | – | peaks in plasma profile [3]: one peak |
| CC(C)=CCc1cc(-c2oc3cc(O)c(CC=C(C)C)c(O)c3c(=O)c2O)ccc1O [glyasperin A] | – | – | – | – | – | – | – | – | – | – | – | – | – | – | – | – | – | – | promote proliferation and angiogenesis | – | – |
| COc1c(CC=C(C)C)c(O)cc2oc(=O)c(-c3ccc(O)cc3O)cc12 [glycycoumarin] | – | – | – | – | – | – | – | – | – | – | – | – | – | – | – | – | – | – | promote proliferation and angiogenesis | – | – |
| CC1(C)[C@@H](O[C@H]2O[C@H](C(=O)O)[C@@H](O)[C@H](O)[C@H]2O[C@@H]2O[C@H](C(=O)O)[C@@H](O)[C@H](O)[C@H]2O)CC[C@]2(C)[C@H]3C(=O)C=C4[C@@H]5C[C@@](C)(C(=O)O)CC[C@]5(C)CC[C@@]4(C)[C@]3(C)CC[C@@H]12 [glycyrrhizic acid] | 17.3 ± 11 | 18.2 ± 9.61 | 12.7 ± 5.06 | 1.39e-05 | 0.3517 ± 0.3474 | 2.13 h and 2.13 ± 1.44 h | 1884.66 ± 9.26 | 19.25 ± 0.34 | 200.96 ± 3.93 | 1834.54 ± 29.34 | 2099.10 ± 8.92 | 1869.00 ± 42.55 | 18.77 ± 0.09 | 20.49 ± 0.79 | 19.30 ± 0.20 | 200.33 ± 2.98 | 203.22 ± 3.32 | 188.63 ± 3.57 | – | exert antiinflammatory effects in a dose-dependent manner | detection in vivo at 48 h ([1]; 48 h after oral TMYX extract 8.3 g/kg): can still be detected in vivo at 48 h; peaks in the mean plasma concentration-time profile [1]: double peaks; C max2 [1]: 0.4761 ± 0.146 µg/mL; T max2 [1]: 17.67 h and 17.67 ± 10.31 h; peaks in plasma concentration-time profile [5]: One peak |
| CC(C)=CCc1c(O)ccc(-c2coc3cc(O)cc(O)c3c2=O)c1O [licoisoflavone A] | – | – | – | – | – | – | – | – | – | – | – | – | – | – | – | – | – | – | promote proliferation and angiogenesis | – | – |
| COc1cc2c(c(OC)c1CC=C(C)C)C(=O)[C@H](c1ccc(O)c(CC=C(C)C)c1O)CO2 [licorisoflavan A] | – | – | – | – | – | – | – | – | – | – | – | – | – | – | – | – | – | – | promote proliferation and angiogenesis | – | – |
| O=C1C[C@@H](c2ccc(O)cc2)Oc2cc(O)ccc21 [liquiritigenin] | 0.333 ± 0.142 | 12.7 ± 7.04 | 0.315 ± 0.13 | 0.000139 | 0.0378 ± 0.0241 | 0.20 h and 0.20 ± 0.07 h | 92.65 ± 0.68 | 0.87 ± 0.01 | 8.63 ± 0.23 | 91.88 ± 0.86 | 112.69 ± 1.30 | 92.59 ± 0.63 | 0.88 ± 0.02 | 0.87 ± 0.01 | 0.89 ± 0.02 | 9.26 ± 0.08 | 10.82 ± 0.58 | 8.99 ± 0.07 | – | – | peaks in the mean plasma concentration-time profile [1]: double peaks; C max2 [1]: 0.021 ± 0.0153 µg/mL; T max2 [1]: 7.20 h and 7.20 ± 3.35 h; peaks in plasma concentration-time profile [5]: One peak |
| COc1cc2c(c(OC)c1OC)-c1c(cc(OC)c(OC)c1OC)C[C@](C)(O)[C@@H](C)C2 [schisandrin] | 0.473 ± 0.321 | 2.73 ± 1.54 | 0.411 ± 0.239 | 9.44e-05 | 0.0926 ± 0.053 | 1.00 ± 0.92 h | 196.02 ± 2.10 | 1.83 ± 0.02 | 18.35 ± 0.09 | 183.83 ± 1.00 | 194.61 ± 1.13 | 189.32 ± 1.74 | 1.77 ± 0.03 | 2.00 ± 0.04 | 1.71 ± 0.01 | 17.86 ± 0.20 | 21.15 ± 0.50 | 18.28 ± 0.23 | – | exert antiinflammatory effects in a dose-dependent manner | – |
| OC[C@H]1O[C@@H](Oc2c(O)cc(O)cc2/C=C/c2ccc(O)cc2)[C@H](O)[C@@H](O)[C@@H]1O [stilbene glycoside] | 0.297 ± 0.185 | 1.99 ± 1.31 | 0.284 ± 0.189 | 0.000125 | 0.0991 ± 0.0271 | 0.50 ± 0.31 h | 182.40 ± 1.23 | 1.89 ± 0.00 | 19.00 ± 0.64 | 203.34 ± 1.39 | 202.79 ± 12.80 | 200.45 ± 2.10 | 1.99 ± 0.01 | 1.82 ± 0.01 | 2.00 ± 0.03 | 20.01 ± 0.31 | 20.88 ± 1.19 | 19.87 ± 1.43 | – | exert antiinflammatory effects in a dose-dependent manner | – |
